Reference: US11952362B2, “Compositions and methods for treating epigenetic disease” (The Regents of the University of California, priority 2018, dated 2024)

What was measured:
[1] = tested on: RT-112 bladder cancer cells; assay: Cell viability assay (CellTiter Glo), RT-112; assay type: cell-based
Protocol: Pancreatic cancer cell lines (MIA PaCa-2 and CAPAN-2) were purchased from ATCC. MIA PaCa-2 were grown in DMEM and CAPAN-2 in McCoy's 5A (Gibco). Colon cancer cell lines (SW480 and HT-29) were purchased from ATCC. SW480 were grown in Leibovitz's L-15 (ATCC) and HT-29 in McCoy's 5A (Gibco). Lung cancer cell lines (NCI 460 and NCI 1975) were purchased from ATCC and grown in RPMI 1640 (Gibco). PC-3 prostate cancer cell line was purchased from ATCC and grown in F-12K (ATCC). Bladder cancer cell line 5637 was purchased from ATCC and RT-112 was purchased from Sigma-Aldrich and was grown in RPMI 1640 (Gibco). Bladder cancer cell lines, UMUC-9, UMUC-15 and UMUC-7 were purchased from MD Anderson and were grown in EMEM (ATCC). Bladder cancer cell line J82 was purchased from ATCC and was grown in EMEM (ATCC). SW1710 and EJ28 bladder cancer cell lines were purchased from DSMZ and were grown in DMEM (ATCC) and RPMI-1640 (Gibco), respectively. Bladder cancer cell line T24 was purchased from ATCC and grown in McCoy's 5A (Gibco). Bladder cancer cell line BC-3C was purchased from DSMZ and was grown in McCoy's 5A (Gibco). All media were supplemented with 10% FBS (Gemini Bioproducts) and 1% Antibiotic-Antimycotic (Gibco). In the case of MIA PaCa-2, medium was also supplemented with 2.5% horse serum (Gibco). NCM356 colon epithelial cell lines were growth in M3:10 (INCELL, San Antonio, Tex.). A CMV-driven-HDAC9 vector was used to overexpress HDAC9 levels in NCM356 cells. IL1B and TNFA mRNA levels were measured by qPCR analysis as described previously (Fang K et al. Am J Pathol, 188(3):586-99, 2018).
(§1) 1.8×10^3 cells/well were plated in quadruplicates in 96-well plate and treated with exogenously added MJK analogues 6 hours after plating. For the experiments performed to calculate the IC50s of HDAC9 analogues, a secondary treatment of exogenously added MJK analogues was performed 2 days later. Cell growth was assessed 1, 3, 5 or 7 days after plating using the CellTiter Glo Luminescence Cell Viability Assay (Promega) according to manufacturer's protocol. For the experiments where the effect of combinatorial treatment of MJK-004 analogues with chemotherapy was assessed, treatment of cells with gemcitabine (10 nM) or 5-fluouracil (2000 nM) was performed one day after MJK-004 treatment and the cells were further treated with exogenously added MJK analogues 2 days later. Cell growth was assessed 3, 4, 5 or 6 days after plating using the CellTiter Glo Luminescence Cell Viability Assay (Promega) according to manufacturer's protocol. Data are expressed as mean […] (arbitrary units)±S.D.
(§2) Cell Viability Assays were employed to determine the concentration of MJK analogues where the response is reduced by half. For each treatment of cancer cells, 1, 2, 5, 10 and 20 μM of MJK analogues were applied. GraphPad Prism 7 software was used to fit dose response curves. Relative Luciferase Activity Units were plotted against the log values of the doses used and the nonlinear regression model was used for data analysis.
MJK-001 effects on a cancer cell line panel: The effects of MJK-001 (20 uM) on cancer cell growth was evaluated in 9 cancer cell lines, consisting of bladder, colon, lung, prostate and pancreatic cancer cell lines. Cell growth was measured on day 5. Bladder cancer cell lines (RT-112, 5637) were more responsive to MJK-001 treatment, followed by the colon and pancreatic cancer cell lines shown in Table 3.

bladder cancer cells = assay: Bladder cancer cell growth, overall finding; assay type: cell-based; conditions: in words
Protocol: as §1, §2
MJK-004 efficacy on bladder cancer cell growth and colony-formation ability: Based on the above findings, the MJK compounds were examined to determine if they had substantially better efficacy than MJK-001 to suppress bladder cancer cell growth by calculating the IC50 values.
The synthesized series of MJK chemical compounds have increased specificity for HDAC9 or HDAC4 isoforms. […] On the other hand, MJK-004 is highly efficient in blocking bladder cancer cell growth through regulation of HDAC4 isoform. MJK-006 and MJK-008 compounds have the potential to be developed as therapeutics for Crohn's Disease and other auto-immune diseases. […]

[2] = Homo sapiens, RT-112 cell growth

IC50 [1, 2] | IC50 (uM) values ([1]; RT-112 cell growth) | SMILES | inhibition at 20 µM ([1]; Homo sapiens, RT-112, 120 h, RT112, 20 uM, day 5, read-out: % growth inhibition) | cell growth, monotherapy ([1]; RT-112, days 4 & 5) | cell growth, combination with gemcitabine ([1]; RT-112, gemcitabine 10 nM, days 4 & 5) | effect on bladder cancer cell growth (bladder cancer cells)
9.15 µM |  | Cn1c(/C=C/C(=O)NO)ccc1/C=C/C(=O)c1cccc(F)c1 [MJK001, (E)-3-(5-((E)-3-(3-Fluorophenyl)-3-oxoprop-1-en-1-yl)-1-methyl-1H-pyrrol-2-yl)-N-hydro-xyacrylamide] | 51% |  |  | 
2.37 µM |  | Cn1c(/C=C/C(=O)NO)ccc1/C=C/C(=O)c1cccs1 [MJK004, (E)-N-hydroxy-3-(1-methyl-5-((E)-3-oxo-3-(thiophen-2-yl)prop-1-en-1-yl)-1H-pyrrol-2-yl)acrylamide] |  | suppressed bladder cancer growth in both cell lines as a monotherapy | increased gemcitabine's efficacy | highest efficacy
38.3 µM |  | Cn1c(/C=C/C(=O)NO)ccc1/C=C/C(=O)c1cccnc1 [MJK006, (E)-N-hydroxy-3-(1-methyl-5-((E)-3-oxo-3-(pyridin-3-yl)prop-1-en-1-yl)-1H-pyrrol-2-yl)acrylamide] |  |  |  | did not have any effect
 | ns | Cl.Cn1c(/C=C/C(=O)NO)ccc1/C=C/C(=O)c1cccnc1 [MJK008, (E)-N-Hydroxy-3-(1-methyl-5-((E)-3-oxo-3-(pyridin-3-yl)prop-1-en-1-yl)-1H-pyrrol-2-yl)ac-rylamide hydrochloride] |  |  |  | did not have any effect
